# Key:
# Type in all cases: toxicity, cell-based
# Fibroblast = assay: Incucyte cell viability with human fibroblast; conditions: 10 µM, compound concentration 10 uM
# HEK-293T = assay: Incucyte cell viability with HEK293T; conditions: human, 10 µM, compound concentration 10 uM
# U2OS = assay: Incucyte cell viability with U2OS; conditions: human, 10 µM, compound concentration 10 uM
# Note: unitless GR value; below 1 slowed growth and below 0 cell loss.
compound,measurement,setting,value
Cc1ccc(S(=O)(=O)O)cc1.Cn1cc(-c2ccc(F)c(C(F)(F)F)c2)nc1C1CCN(c2ncnc3[nH]ncc23)CC1,Growth Rate,"Fibroblast; 0 h, replicate number 1",0.54
same,Growth Rate,"Fibroblast; 0 h, replicate number 2",-0.97
same,Growth Rate,"Fibroblast; 6 h, replicate number 1",-1
same,Growth Rate,"HEK-293T; 0 h, replicate number 1",0.72
same,Growth Rate,"HEK-293T; 0 h, replicate number 2",-0.63
same,Growth Rate,"HEK-293T; 24 h, replicate number 2",0.9
same,Growth Rate,"U2OS; 0 h, replicate number 1",0.87
same,Growth Rate,"U2OS; 0 h, replicate number 2",-1
O=C1N=C(NCc2cccs2)S/C1=C\c1ccc2ncccc2c1,Growth Rate,"Fibroblast; 0 h, replicate number 1",-0.1
same,Growth Rate,"Fibroblast; 6 h, replicate number 1",0.04
same,Growth Rate,"HEK-293T; 0 h, replicate number 1",-0.36
same,Growth Rate,"HEK-293T; 0 h, replicate number 2",-0.64
same,Growth Rate,"U2OS; 0 h, replicate number 1",0.58
same,Growth Rate,"U2OS; 0 h, replicate number 2",-0.23
same,Growth Rate,"U2OS; 12 h, replicate number 1",-0.76
same,Growth Rate,"U2OS; 12 h, replicate number 2",0.57
same,Growth Rate,"U2OS; 18 h, replicate number 1",0.78
same,Growth Rate,"U2OS; 18 h, replicate number 2",0.67
same,Growth Rate,"U2OS; 24 h, replicate number 1",0.64
same,Growth Rate,"U2OS; 24 h, replicate number 2",0.78
CN(Cc1cccc(F)c1CNc1cc(F)c(S(=O)(=O)Nc2cscn2)c(F)c1)C(C)(C)C,Growth Rate,"Fibroblast; 0 h, replicate number 2",-0.81
same,Growth Rate,"Fibroblast; 18 h, replicate number 1",0.65
same,Growth Rate,"HEK-293T; 0 h, replicate number 1",0.6
same,Growth Rate,"HEK-293T; 0 h, replicate number 2",0.65
same,Growth Rate,"U2OS; 6 h, replicate number 1",0.37
same,Growth Rate,"U2OS; 6 h, replicate number 2",0.58
same,Growth Rate,"U2OS; 12 h, replicate number 1",0.72
same,Growth Rate,"U2OS; 12 h, replicate number 2",0.86
same,Growth Rate,"U2OS; 18 h, replicate number 1",0.89
same,Growth Rate,"U2OS; 18 h, replicate number 2",0.97
same,Growth Rate,"U2OS; 24 h, replicate number 1",0.9
same,Growth Rate,"U2OS; 24 h, replicate number 2",0.96
c1ccc2c(-c3coc4cc(-c5ccc(N6CCNCC6)cc5)cnc34)ccnc2c1,Growth Rate,"Fibroblast; 0 h, replicate number 1",0.87
same,Growth Rate,"Fibroblast; 12 h, replicate number 1",0.93
same,Growth Rate,"Fibroblast; 12 h, replicate number 2",0.61
same,Growth Rate,"Fibroblast; 18 h, replicate number 1",0.29
same,Growth Rate,"Fibroblast; 18 h, replicate number 2",0.28
same,Growth Rate,"Fibroblast; 24 h, replicate number 1",0.1
same,Growth Rate,"Fibroblast; 24 h, replicate number 2",0.11
same,Growth Rate,"HEK-293T; 0 h, replicate number 2",-1
same,Growth Rate,"HEK-293T; 6 h, replicate number 1",-0.57
same,Growth Rate,"HEK-293T; 6 h, replicate number 2",-0.5
same,Growth Rate,"HEK-293T; 12 h, replicate number 1",-0.52
same,Growth Rate,"HEK-293T; 12 h, replicate number 2",-0.56
same,Growth Rate,"HEK-293T; 18 h, replicate number 1",-0.42
same,Growth Rate,"HEK-293T; 18 h, replicate number 2",-0.43
same,Growth Rate,"HEK-293T; 24 h, replicate number 1",-0.3
same,Growth Rate,"HEK-293T; 24 h, replicate number 2",-0.33
same,Growth Rate,"U2OS; 0 h, replicate number 2",0.9
same,Growth Rate,"U2OS; 6 h, replicate number 2",0
same,Growth Rate,"U2OS; 12 h, replicate number 1",0.59
same,Growth Rate,"U2OS; 12 h, replicate number 2",-0.36
same,Growth Rate,"U2OS; 18 h, replicate number 1",0.14
same,Growth Rate,"U2OS; 18 h, replicate number 2",-0.38
same,Growth Rate,"U2OS; 24 h, replicate number 1",-0.05
same,Growth Rate,"U2OS; 24 h, replicate number 2",-0.46
Cl.Cl.c1ccc2c(-c3cnn4cc(-c5ccc(N6CCNCC6)cc5)cnc34)ccnc2c1,Growth Rate,"Fibroblast; 0 h, replicate number 2",-0.67
same,Growth Rate,"Fibroblast; 6 h, replicate number 1",-0.76
same,Growth Rate,"Fibroblast; 12 h, replicate number 1",-1
same,Growth Rate,"HEK-293T; 0 h, replicate number 1",-0.16
same,Growth Rate,"HEK-293T; 6 h, replicate number 2",-0.92
same,Growth Rate,"HEK-293T; 12 h, replicate number 2",-0.66
same,Growth Rate,"HEK-293T; 18 h, replicate number 2",-0.48
same,Growth Rate,"HEK-293T; 24 h, replicate number 2",-0.38
same,Growth Rate,"U2OS; 0 h, replicate number 1",-0.92
same,Growth Rate,"U2OS; 6 h, replicate number 1",-0.9
same,Growth Rate,"U2OS; 6 h, replicate number 2",-0.64
same,Growth Rate,"U2OS; 12 h, replicate number 1",-0.48
same,Growth Rate,"U2OS; 12 h, replicate number 2",-0.46
same,Growth Rate,"U2OS; 18 h, replicate number 1",-0.35
same,Growth Rate,"U2OS; 18 h, replicate number 2",-0.37
same,Growth Rate,"U2OS; 24 h, replicate number 1",-0.32
COc1cc2ncnc(Nc3ccc(Oc4ccccc4)cc3C)c2cc1OC.Cl,Growth Rate,"Fibroblast; 0 h, replicate number 1",-0.71
same,Growth Rate,"Fibroblast; 0 h, replicate number 2",-0.78
same,Growth Rate,"Fibroblast; 6 h, replicate number 1",0.3
same,Growth Rate,"Fibroblast; 12 h, replicate number 1",-1
same,Growth Rate,"HEK-293T; 0 h, replicate number 1",-0.14
same,Growth Rate,"HEK-293T; 0 h, replicate number 2",-0.45
same,Growth Rate,"U2OS; 0 h, replicate number 1",0.5
same,Growth Rate,"U2OS; 0 h, replicate number 2",-0.92
same,Growth Rate,"U2OS; 6 h, replicate number 2",0.35
same,Growth Rate,"U2OS; 12 h, replicate number 2",0.74
CC1(C)C(=O)N([C@H]2CCc3c(O)cccc32)c2nc(Nc3cccc(CN4CCCC4)c3)ncc21,Growth Rate,"Fibroblast; 6 h, replicate number 1",-0.49
same,Growth Rate,"Fibroblast; 6 h, replicate number 2",-0.63
same,Growth Rate,"Fibroblast; 12 h, replicate number 1",-0.4
same,Growth Rate,"Fibroblast; 12 h, replicate number 2",-0.57
same,Growth Rate,"Fibroblast; 18 h, replicate number 1",-0.44
same,Growth Rate,"Fibroblast; 18 h, replicate number 2",-0.52
same,Growth Rate,"Fibroblast; 24 h, replicate number 1",-0.42
same,Growth Rate,"Fibroblast; 24 h, replicate number 2",-0.52
same,Growth Rate,"HEK-293T; 0 h, replicate number 2",-1
same,Growth Rate,"HEK-293T; 6 h, replicate number 1",-0.69
same,Growth Rate,"HEK-293T; 6 h, replicate number 2",-0.56
same,Growth Rate,"HEK-293T; 12 h, replicate number 1",-0.53
same,Growth Rate,"HEK-293T; 12 h, replicate number 2",-0.41
same,Growth Rate,"HEK-293T; 18 h, replicate number 1",-0.36
same,Growth Rate,"HEK-293T; 18 h, replicate number 2",-0.35
same,Growth Rate,"HEK-293T; 24 h, replicate number 1",-0.28
same,Growth Rate,"HEK-293T; 24 h, replicate number 2",-0.32
same,Growth Rate,"U2OS; 0 h, replicate number 1",-0.88
same,Growth Rate,"U2OS; 0 h, replicate number 2",0.2
same,Growth Rate,"U2OS; 6 h, replicate number 1",0.38
same,Growth Rate,"U2OS; 6 h, replicate number 2",-0.15
same,Growth Rate,"U2OS; 12 h, replicate number 1",0.05
same,Growth Rate,"U2OS; 12 h, replicate number 2",-0.3
same,Growth Rate,"U2OS; 18 h, replicate number 1",-0.08
same,Growth Rate,"U2OS; 18 h, replicate number 2",-0.3
same,Growth Rate,"U2OS; 24 h, replicate number 1",-0.27
same,Growth Rate,"U2OS; 24 h, replicate number 2",-0.38

# From ChEMBL document CHEMBL5303304, “EUbOPEN Chemogenomics Library - IncuCyte” (2023)
